Literature values, collected in patent US20240408163A1, “CAPILLARY NUTRITIONAL COMPLEX” (NATURAL FOLIC, S.L., priority 2023, published 2024).

CC1=C(/C=C/C(C)=C/C=C/C(C)=C/C=C/C=C(C)/C=C/C=C(C)/C=C/C2=C(C)C(=O)[C@@H](O)CC2(C)C)C(C)(C)C[C@H](O)C1=O [Astaxanthin]
antioxidant power relative to coenzyme Q10 (times more powerful than coenzyme Q10): 800 times
antioxidant power relative to vitamin C (times more powerful than vitamin C): 6000 times
